A word on the IC50: it is the concentration at which inhibition is half-maximal. A low value points to greater potency.

Drawing on paper PMC6471485, “Selective Inhibitors of a Human Prolyl Hydroxylase (OGFOD1) Involved in Ribosomal Decoding” (Chemistry (Weinheim an Der Bergstrasse, Germany), 2019), this text covers IC50 for 2 molecules.

Some results are limits rather than exact numbers.

The assay deals with T1, NO66 (Homo sapiens, UniProt Q9H6W3).
T1 construct: 116-641 were cloned into pFB-LIC-Bse; His (N); made in house; host or cells: Sf9 insect cells
T1 sequence (Q9H6W3 116-641 limits assumed): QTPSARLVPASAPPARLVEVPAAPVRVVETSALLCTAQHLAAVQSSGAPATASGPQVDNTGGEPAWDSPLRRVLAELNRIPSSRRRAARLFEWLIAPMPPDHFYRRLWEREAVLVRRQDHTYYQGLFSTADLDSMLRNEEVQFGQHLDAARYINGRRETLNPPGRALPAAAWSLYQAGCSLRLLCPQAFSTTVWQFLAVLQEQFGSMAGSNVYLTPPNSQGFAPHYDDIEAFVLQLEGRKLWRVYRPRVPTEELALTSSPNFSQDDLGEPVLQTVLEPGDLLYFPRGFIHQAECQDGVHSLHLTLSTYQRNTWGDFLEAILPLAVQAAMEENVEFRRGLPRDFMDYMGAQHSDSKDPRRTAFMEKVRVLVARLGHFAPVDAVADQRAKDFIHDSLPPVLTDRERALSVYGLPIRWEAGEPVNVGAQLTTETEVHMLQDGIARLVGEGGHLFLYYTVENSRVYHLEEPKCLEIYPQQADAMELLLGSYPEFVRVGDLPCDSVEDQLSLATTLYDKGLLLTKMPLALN
Kind of assay: NO66 IC50 determination, RapidFire MS. In kind it is biochemical. As to the method:
reactions were quenched after 4 min. KDM4A inhibition was tested as described previously using a formaldehyde dehydrogenase (FDH) assay.[9] JARID1B and JARID1C inhibition was tested as described previously using reported AlphaScreen-based assays.[10] MINA531-464 and NO66116-641 were cloned into pFB-LIC-Bse, and the N-terminal His-tagged proteins were produced in Sf9 insect cells. The MINA53 peptide substrate Rpl27a […]
(Gly31 – Pro49 […]) and the NO66 peptide substrate Rpl8
(Asn205 – Thr224 […]) were synthesized by Peptide Protein
Research Ltd (Fareham, Hampshire, UK) to >95% purity. IC50 determinations were performed in 384-well polypropylene plates (Greiner Bio One, Cat Number 781096), and compound dispenses were performed using an ECHO 550 acoustic dispenser (Labcyte, Sunnyvale, CA). […]
RapidFire integrator software (Agilent). Percent conversion was calculated in Excel, and IC50 curves were generated using Prism v. […]
Assays consisted of enzyme (2 µM), inhibitor (200 µM), MnCl2 (50 µM), and SYPRO Orange (1:5000 dilution), all prepared in 50 mM HEPES, pH 7.5. […] An Opticon thermal cycler (MJ Research Inc) was used to control temperature and measure fluorescence. […]
CPMG Binding Experiments: Binding of the inhibitors to the proteins was monitored using Carr-Purcell-Meiboom-Gill (CPMG)-edited 1H spectra. […]

`Cn1c(O)c(C(=O)CCc2cccs2)c(=O)n(C)c1=O` [compound 42] came in with an IC50 greater than 100 µM.
Molecule `Cn1c(O)c(C(=O)CCc2ccccc2)c(=O)n(C)c1=O` [compound 26] showed a 50% inhibitory concentration (IC50) greater than 100 µM.
